Data reported in patent publication US20260159536A1, “AKR1C3-ACTIVATED DNA ALKYLATING AGENT, AND MEDICAL APPLICATION THEREOF” (ASCENTAWITS PHARMACEUTICALS, LTD., priority 2021, published 2026).

Key:
[1] = tested on: HuPrime model LU0884 human lung cancer; assay: In vivo pharmacodynamics, lung cancer LU0884 PDX model; set-up: species or system BALB/c nude mice
[2] = Plasma stability test, monkey; assay type: in vitro ADME; details: 37° C.
Method: (§1) The pH of the plasma was checked and recorded. Note: a.
(§2) The final concentration of solvent was 0.5%.
(§3) The assay was performed in duplicate. […] The tubes were mixed by vortex for 5 minutes.

[3] = Plasma stability test, mouse; assay type: in vitro ADME; details: 5 μM, 37° C.
Method: as §1, §2, §3

[4] = tested on: human lung cancer NCI-H460 cells; assay: In vivo pharmacodynamics, NCI-H460 subcutaneous xenograft model; set-up: species or system BALB/c nude mice; details: for Relative tumor volume (x ± S) / T/C (%) / TGI (%) / Tumor volume (x ± S): QWx3, i.v.; for Tumor volume (x ± S): in mm³ (unit assumed)
[5] = Paclitaxel 20 mg/kg, Compound A 2.5, 5, 10 mg/kg

SMILES: O=[N+]([O-])c1ccc(C(OP(=O)(N2CC2)N2CC2)C(F)(F)F)cc1Oc1ccc(-c2ccc(F)cc2)c(F)c1 (racemic) [Compound A]
- Size of tumor volume ([1]; Group 4, Compound A 2.5 mg/kg, Day 4): 138.21 mm^3
- Size of tumor volume ([1]; Group 4, Compound A 2.5 mg/kg, Day 7): 177.96 mm^3
- Size of tumor volume ([1]; Group 4, Compound A 2.5 mg/kg, Day 11): 194.38 mm^3
- Size of tumor volume ([1]; Group 4, Compound A 2.5 mg/kg, Day 14): 216.81 mm^3
- Size of tumor volume ([1]; Group 4, Compound A 2.5 mg/kg, Day 18): 261.94 mm^3
- Size of tumor volume ([1]; Group 4, Compound A 2.5 mg/kg, Day 21): 287.79 mm^3
- Size of tumor volume ([1]; Group 4, Compound A 2.5 mg/kg, Day 25): 328.61 mm^3
- Size of tumor volume ([1]; Group 4, Compound A 2.5 mg/kg, Day 28): 360.43 mm^3
- Size of tumor volume ([1]; Group 5, Compound A 5 mg/kg, Day 0): 110.67 mm^3
- Size of tumor volume ([1]; Group 5, Compound A 5 mg/kg, Day 4): 173.28 mm^3
- Size of tumor volume ([1]; Group 5, Compound A 5 mg/kg, Day 7): 221.81 mm^3
- Size of tumor volume ([1]; Group 5, Compound A 5 mg/kg, Day 11): 229.45 mm^3
- Size of tumor volume ([1]; Group 5, Compound A 5 mg/kg, Day 14): 236.47 mm^3
- Size of tumor volume ([1]; Group 5, Compound A 5 mg/kg, Day 18): 260.75 mm^3
- Size of tumor volume ([1]; Group 5, Compound A 5 mg/kg, Day 21): 271.59 mm^3
- Size of tumor volume ([1]; Group 5, Compound A 5 mg/kg, Day 25): 289.40 mm^3
- Size of tumor volume ([1]; Group 5, Compound A 5 mg/kg, Day 28): 291.60 mm^3
- Size of tumor volume ([1]; Group 6, Compound A 10 mg/kg, Day 0): 109.04 mm^3
- Size of tumor volume ([1]; Group 6, Compound A 10 mg/kg, Day 4): 202.09 mm^3
- Size of tumor volume ([1]; Group 6, Compound A 10 mg/kg, Day 7): 257.40 mm^3
- Size of tumor volume ([1]; Group 6, Compound A 10 mg/kg, Day 11): 283.55 mm^3
- Size of tumor volume ([1]; Group 6, Compound A 10 mg/kg, Day 14): 293.14 mm^3
- Size of tumor volume ([1]; Group 6, Compound A 10 mg/kg, Day 18): 343.92 mm^3
- Size of tumor volume ([1]; Group 6, Compound A 10 mg/kg, Day 21): 359.85 mm^3
- Size of tumor volume ([1]; Group 6, Compound A 10 mg/kg, Day 25): 411.01 mm^3
- Size of tumor volume ([1]; Group 6, Compound A 10 mg/kg, Day 28): 434.80 mm^3
- tolerability [1, 5]: well tolerated
- tumor inhibitory effect [1, 5]: certain tumor inhibitory effects
- Percentage remaining after 2 hours in plasma ([2]; Monkey plasma, 5 μM): 79.20%
- remained in plasma after 2 hours ([2]; monkey plasma): 79.20%
- Percentage remaining after 2 hours in plasma [3]: 38.19%
- Tumor volume ([4]; 5 mg/kg i.v., Day 7): 144.35 mm^3
- Tumor volume ([4]; 5 mg/kg i.v., Day 10): 183.15 mm^3
- Tumor volume ([4]; 5 mg/kg i.v., Day 14): 198.80 mm^3
- Tumor volume ([4]; 5 mg/kg i.v., Day 17): 228.87 mm^3
- Tumor volume ([4]; 5 mg/kg i.v., Day 21): 253.30 mm^3
- Tumor volume ([4]; 5 mg/kg i.v., Day 24): 310.83 mm^3
- Tumor volume ([4]; 5 mg/kg i.v., Day 28): 279.31 mm^3
- Tumor volume ([4]; 5 mg/kg i.v., Day 31): 337.78 mm^3
- Tumor volume ([4]; 5 mg/kg i.v., Day 35): 452.75 mm^3
- Relative tumor volume (x ± S) ([4]; 5 mg/kg, Day 31): 2.45 ± 0.29
- T/C (%) ([4]; 5 mg/kg, Day 31): 18.51%
- TGI (%) ([4]; 5 mg/kg, Day 31): 81.49%
- Tumor volume (x ± S) ([4]; 5 mg/kg, Day 31): 337.78 ± 54.37
- Tumor volume ([4]; 10 mg/kg i.v., Day 7): 144.21 mm^3
- Tumor volume ([4]; 10 mg/kg i.v., Day 10): 164.75 mm^3
- Tumor volume ([4]; 10 mg/kg i.v., Day 14): 151.95 mm^3
- Tumor volume ([4]; 10 mg/kg i.v., Day 17): 140.29 mm^3
- Tumor volume ([4]; 10 mg/kg i.v., Day 21): 138.66 mm^3
- Tumor volume ([4]; 10 mg/kg i.v., Day 24): 144.36 mm^3
- Tumor volume ([4]; 10 mg/kg i.v., Day 28): 149.16 mm^3
- Tumor volume ([4]; 10 mg/kg i.v., Day 31): 164.13 mm^3
- Tumor volume ([4]; 10 mg/kg i.v., Day 35): 168.68 mm^3
- Relative tumor volume (x ± S) ([4]; 10 mg/kg, Day 31): 1.18 ± 0.27
- TGI (%) ([4]; 10 mg/kg, Day 31): 91.06%
- Tumor volume ([4]; 15 mg/kg i.v., Day 7): 145.41 mm^3
- Tumor volume ([4]; 15 mg/kg i.v., Day 10): 171.22 mm^3
- Tumor volume ([4]; 15 mg/kg i.v., Day 14): 167.54 mm^3
- Tumor volume ([4]; 15 mg/kg i.v., Day 17): 161.80 mm^3
- Tumor volume ([4]; 15 mg/kg i.v., Day 21): 157.66 mm^3
- Tumor volume ([4]; 15 mg/kg i.v., Day 24): 151.20 mm^3
- Tumor volume ([4]; 15 mg/kg i.v., Day 28): 134.73 mm^3
- Tumor volume ([4]; 15 mg/kg i.v., Day 35): 108.70 mm^3
- T/C (%) ([4]; 15 mg/kg, Day 31): 6.94%
- Tumor volume (x ± S) ([4]; 15 mg/kg, Day 31): 125.90 ± 25.46
- effect on body weights ([4]; 5, 10, 15 mg/kg, at least 31 days): no significant effect on the body weights
